# Test results reported in patent US8895032B2, “Dendritic nano-antioxidants” (Central Michigan University, priority 2009, dated 2014).
# Tested on: pBR 322 DNA with Cu2+
# Assay: Pro-oxidant effect: oxidation of DNA with copper (II) ion
# Details: 10 μM Cu2+, 37° C., 1 h
# Description: The pro-oxidant effect of compounds 1, 2, and 3 was examined by oxidation of DNA with copper (II) ion. pBR 322 was incubated with 10 μM Cu^2+ at 37° C. for 1 h in the presence of compound 1, 2, or 3 (final concentrations between 0.35 and 45 μM). […] Lane 1 is native DNA, and lanes 2-10 are Cu^2+-oxidized DNA with 0, 45, 23, 11, 5, 3, 1.5, 0.7, and 0.35 μM antioxidant, respectively.
# This was performed by co-incubation of DNA (pBR 322), copper (II) ion and antioxidant. […] This ultimately forms DNA-Cu(I)OOH, initiating a free radical cascade by which DNA damage occurs. pBR 322 was incubated with 10 μM Cu^2+ in the presence of antioxidants (0-45 μM) at 37° C. for 1 h and subjected to agarose electrophoresis. […] In FIG. 32, lane 1 is native DNA, and lanes 2-10 are Cu^2+ oxidized DNA with 0, 45, 23, 11, 5, 3, 1.5, 0.7, and 0.35 μM antioxidant, respectively. […] However, it should be noted that physiological concentrations of copper are less than 10-20 μM in plasma and approximately […] for the cation in cells.
structure (smiles),measurement,setting,value
"Cc1c(C)c2c(c(C)c1O)CCC(C)(C(=O)O)O2 (centres unmarked) [Trolox, 6-hydroxy-2,5,7,8-tetramethylchroman-2-carboxylic acid]",pro-oxidant effect on DNA at the concentrations tested,0.35-45 μM antioxidant,strong pro-oxidant effect equivalent to quercetin
same,pro-oxidant DNA damage,11-45 μM antioxidant,DNA damage was clearly observed
